Measured values: ChEMBL document CHEMBL1201862, “PubChem BioAssay data set” (2004)
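All cell lines were grown in 96-well plates and treated with compound for 48 hours. At the GI50, growth is halved.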 Activity calls are given as the source filed them. Rule as the data show it: active = GI50 up to about 1.1 µM and inactive = higher.

Assays:
Assay in all cases: inhibition of tumour cell growth, NCI panel, 48 h
NCI-H23 = system: NCI-H23
SK-OV-3 = system: SK-OV-3
SK-MEL-5 = system: SK-MEL-5
NCI/ADR-RES = system: NCI/ADR-RES
SNB-75 = system: SNB-75
HOP-92 = system: HOP-92
HL-60 = system: HL-60
PC-3 = system: PC-3
SN12C = system: SN12C
SR = system: SR
MDA-MB-435 = system: MDA-MB-435
M14 = system: M14
MDA-MB-231 = system: MDA-MB-231
BT-549 = system: BT-549
SF-295 = system: SF-295
A549 = system: A549
OVCAR-3 = system: OVCAR-3
T47D = system: T47D
NCI-H522 = system: NCI-H522
HCC 2998 = system: HCC 2998

Row | SMILES | GI50 (NCI-H23) | GI50 (SK-OV-3) | GI50 (SK-MEL-5) | GI50 (NCI/ADR-RES) | GI50 (SNB-75) | GI50 (HOP-92) | GI50 (HL-60) | GI50 (PC-3) | GI50 (SN12C) | GI50 (SR) | GI50 (MDA-MB-435) | GI50 (M14) | GI50 (MDA-MB-231) | GI50 (BT-549) | GI50 (SF-295) | GI50 (A549) | GI50 (OVCAR-3) | GI50 (T47D) | GI50 (NCI-H522) | GI50 (HCC 2998)
1 | Cc1ccc([N+](=O)[O-])cc1S(=O)(=O)Nc1ccc(C2=NN(c3ccc([N+](=O)[O-])cc3[N+](=O)[O-])C(c3ccccc3O)C2)cc1 (configuration not stated) | 19.6 µM (inactive) | 57 µM (inactive) | 20 µM (inactive) | 27.9 µM (inactive) | 40.4 µM (inactive) | 26.6 µM (inactive) | 27.4 µM (inactive) | 36.4 µM (inactive) | 18 µM (inactive) | 27.2 µM (inactive) | 39.4 µM (inactive) | 34.2 µM (inactive) | 20.6 µM (inactive) | 28.2 µM (inactive) | 29.9 µM (inactive) | 31.4 µM (inactive) | 24.9 µM (inactive) | 27.6 µM (inactive) | 21 µM (inactive) | 
2 | CN/N=C(\C)C(CN(C)C)C(c1ccccc1)c1c(O)c2ccccc2oc1=O (configuration not stated) | > 100 µM (inactive) |  | > 100 µM (inactive) | > 100 µM (inactive) | > 100 µM (inactive) | 0.0574 µM (active) | 29.7 µM (inactive) | > 100 µM (inactive) | > 100 µM (inactive) | 67.9 µM (inactive) | > 100 µM (inactive) | > 100 µM (inactive) | > 100 µM (inactive) | 24.3 µM (inactive) | > 100 µM (inactive) | > 100 µM (inactive) | 49.5 µM (inactive) | 18.7 µM (inactive) | > 100 µM (inactive) | > 100 µM (inactive)
3 | CCC(C)NC(=S)N/N=C(\C)c1ccccn1 (configuration not stated) | < 0.021 µM (active) | 0.188 µM (active) | 0.155 µM (active) | < 0.01 µM (active) | 0.452 µM (active) | 0.14 µM (active) | < 0.01 µM (active) | < 0.01 µM (active) | 0.893 µM (active) | < 0.01 µM (active) | 0.824 µM (active) | 0.0372 µM (active) | 0.0543 µM (active) | 0.444 µM (active) | 0.215 µM (active) | 0.0946 µM (active) | < 0.01 µM (active) | < 0.01 µM (active) |  | 0.447 µM (active)
4 | NCCCCNCCCN1CCOC1=O | > 100 µM (inactive) | > 100 µM (inactive) | > 100 µM (inactive) | > 100 µM (inactive) | > 100 µM (inactive) |  | > 100 µM (inactive) | > 100 µM (inactive) | > 100 µM (inactive) | > 100 µM (inactive) | > 100 µM (inactive) | > 100 µM (inactive) | > 100 µM (inactive) | > 100 µM (inactive) | > 100 µM (inactive) | > 100 µM (inactive) | > 100 µM (inactive) | > 100 µM (inactive) | > 100 µM (inactive) | > 100 µM (inactive)
5 | CC(C)c1ccc2c(c1)/C(=C1/Nc3ccccc3C1=O)C(=O)N2 | 24.4 µM (inactive) | 3.75 µM (inactive) | 27.2 µM (inactive) | 17 µM (inactive) | 3.4 µM (inactive) | 4.58 µM (inactive) |  | 8.85 µM (inactive) | 20.9 µM (inactive) | 18.4 µM (inactive) | 25.8 µM (inactive) | 33.6 µM (inactive) | 5.85 µM (inactive) | 18.1 µM (inactive) | 14.8 µM (inactive) | 15.3 µM (inactive) | 19 µM (inactive) | 0.557 µM (active) | 25.5 µM (inactive) | 19.2 µM (inactive)
6 | CN(C)C(=O)C1CCN(Cc2c[nH]c3ccccc23)CC1 | > 100 µM (inactive) | > 100 µM (inactive) | > 100 µM (inactive) | > 100 µM (inactive) | > 100 µM (inactive) | > 100 µM (inactive) | > 100 µM (inactive) | > 100 µM (inactive) | > 100 µM (inactive) | > 100 µM (inactive) | > 100 µM (inactive) | > 100 µM (inactive) | > 100 µM (inactive) | > 100 µM (inactive) | > 100 µM (inactive) | > 100 µM (inactive) | > 100 µM (inactive) | > 100 µM (inactive) | > 100 µM (inactive) | 
7 | COC(=O)C1CCC(=O)N1C(c1ccccc1)c1cc(OC)c(OC)c(OC)c1 (configuration not stated) | 62.4 µM (inactive) | > 100 µM (inactive) |  | 76 µM (inactive) |  | 99.3 µM (inactive) | 29.4 µM (inactive) | 51.3 µM (inactive) | 80.5 µM (inactive) | 50.9 µM (inactive) | 22.3 µM (inactive) | 43 µM (inactive) | 41.3 µM (inactive) | 92.7 µM (inactive) | 38.9 µM (inactive) | 54.2 µM (inactive) | 51.2 µM (inactive) | 55.8 µM (inactive) | 40.2 µM (inactive) | > 100 µM (inactive)
